# Molecular target: recombinant mTOR (Homo sapiens, UniProt P42345)
# Assay: In Vitro mTOR Kinase Assay (Echo), Test (a)(ii) (AlphaScreen)
# Type: biochemical
# Settings: Echo acoustic dispensing
# Experimental: (a)(ii) In Vitro mTOR Kinase Assay (Echo)
# The assay used AlphaScreen technology (Gray et al., Analytical Biochemistry, 2003, 313: 234-245) to determine the ability of test compounds to inhibit phosphorylation by recombinant mTOR.
# The HEK293 FLAG-tagged mTOR (1362-2549) stable cell line was routinely maintained at 37° C. with 5% CO2 up to a confluency of 70-90% in Dulbecco's modified Eagle's growth medium (DMEM; Invitrogen Limited, Paisley, UK Catalogue No. 41966-029) containing 10% heat-inactivated foetal calf serum (FCS; Sigma, Poole, Dorset, UK, Catalogue No. F0392), 1% L-glutamine (Gibco, Catalogue No. 25030-024) and 2 mg/ml Geneticin (G418 sulfate; Invitrogen Limited, UK Catalogue No. 10131-027). Following expression in the mammalian HEK293 cell line, expressed protein was purified using the FLAG epitope tag using standard purification techniques.
# Aliquots ([…]) of each compound dilution were acoustically […] using a Labcyte Echo 550 into a well of a Greiner 384-well low volume (LV) white polystyrene plate (Greiner Bio-one). A […] mixture of recombinant purified mTOR enzyme, 1 μM biotinylated peptide substrate (Biotin-Ahx-[…]NH2; Bachem UK Ltd), ATP (20 μM) and a buffer solution [comprising Tris-HCl pH7.4 buffer (50 mM), EGTA (0.1 mM), bovine serum albumin (0.5 mg/mL), DTT (1.25 mM) and manganese chloride (10 mM)] was incubated at room temperature for […].
# These assay solutions were incubated for 2 hours at room temperature.
# Each reaction was stopped by the addition of […] of a mixture of EDTA (50 mM), bovine serum albumin (BSA; 0.5 mg/mL) and Tris-HCl pH7.4 buffer (50 mM) containing
# p70 S6 Kinase (T389) 1A5 Monoclonal Antibody (Cell Signalling Technology, Catalogue No. 9206B) and AlphaScreen Streptavidin donor and Protein A acceptor beads (200 ng; Perkin Elmer, Catalogue No. 6760002B and 6760137R respectively) were added and the assay plates were left overnight at room temperature in the dark. The resultant signals arising from laser light excitation at 680 nm were read using a Packard Envision instrument.
# The phosphorylated biotinylated peptide that is associated with AlphaScreen Streptavidin donor beads forms a complex with the p70 S6 Kinase (T389) 1A5 Monoclonal Antibody that is associated with Alphascreen Protein A acceptor beads. Upon laser light excitation at 680 nm, the donor bead : acceptor bead complex produces a signal that can be measured. Accordingly, the presence of mTOR kinase activity results in an assay signal. In the presence of an mTOR kinase inhibitor, signal strength is reduced. mTOR enzyme inhibition for a given test compound was expressed as an IC50 value.
# Chain of recombinant mTOR (P42345 1362-2549): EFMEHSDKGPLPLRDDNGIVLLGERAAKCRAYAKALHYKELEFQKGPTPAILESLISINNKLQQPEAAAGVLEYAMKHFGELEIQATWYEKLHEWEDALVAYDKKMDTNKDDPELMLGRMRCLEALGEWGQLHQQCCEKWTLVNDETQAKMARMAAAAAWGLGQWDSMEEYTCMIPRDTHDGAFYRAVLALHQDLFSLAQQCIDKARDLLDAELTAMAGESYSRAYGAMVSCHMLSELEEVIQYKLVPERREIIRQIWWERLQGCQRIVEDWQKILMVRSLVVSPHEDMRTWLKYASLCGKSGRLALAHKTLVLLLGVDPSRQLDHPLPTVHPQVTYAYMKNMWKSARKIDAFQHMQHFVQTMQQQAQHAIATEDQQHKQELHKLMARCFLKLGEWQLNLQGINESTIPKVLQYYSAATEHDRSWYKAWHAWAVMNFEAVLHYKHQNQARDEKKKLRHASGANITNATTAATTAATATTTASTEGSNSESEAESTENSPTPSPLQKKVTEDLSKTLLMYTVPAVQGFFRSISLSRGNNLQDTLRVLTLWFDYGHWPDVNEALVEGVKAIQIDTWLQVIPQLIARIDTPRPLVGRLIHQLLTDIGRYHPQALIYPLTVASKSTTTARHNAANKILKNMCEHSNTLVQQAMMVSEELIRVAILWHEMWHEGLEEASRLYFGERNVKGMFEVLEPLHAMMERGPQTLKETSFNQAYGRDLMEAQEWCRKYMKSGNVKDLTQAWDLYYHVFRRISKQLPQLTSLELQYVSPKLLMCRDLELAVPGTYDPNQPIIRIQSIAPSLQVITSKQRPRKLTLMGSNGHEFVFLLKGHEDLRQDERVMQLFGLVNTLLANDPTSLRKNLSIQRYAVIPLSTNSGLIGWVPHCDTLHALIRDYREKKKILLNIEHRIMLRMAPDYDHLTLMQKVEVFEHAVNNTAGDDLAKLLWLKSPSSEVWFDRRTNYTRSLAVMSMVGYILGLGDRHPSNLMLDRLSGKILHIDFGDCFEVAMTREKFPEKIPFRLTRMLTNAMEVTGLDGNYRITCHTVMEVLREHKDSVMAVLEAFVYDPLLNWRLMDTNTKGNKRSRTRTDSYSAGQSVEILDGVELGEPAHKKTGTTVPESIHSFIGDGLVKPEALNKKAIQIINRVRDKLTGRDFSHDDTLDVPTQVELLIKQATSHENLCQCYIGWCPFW
row,IC50 [nM],SMILES
1,19.7,"C[C@H]1COCCN1c1cc(CS(C)(=O)=O)nc(-c2ccc(NC(=S)NC3CC3)cc2)n1 [Example 1, 3-Cyclopropyl-1-[4-[4-[(3S)-3-methylmorpholin-4-yl]-6-(methylsulfonylmethyl)pyrimidin-2-yl]phenyl]thiourea]"
2,17.7,"CCNC(=S)Nc1ccc(-c2nc(CS(C)(=O)=O)cc(N3CCOC[C@@H]3C)n2)cc1 [Example 1a, 3-ethyl-1-[4-[4-[(3S)-3-methylmorpholin-4-yl]-6-(methylsulfonylmethyl)pyrimidin-2-yl]phenyl]thiourea]"
3,68.8,"COc1ccc(NC(=S)Nc2ccc(-c3nc(CS(C)(=O)=O)cc(N4CCOC[C@@H]4C)n3)cc2)cc1 [Example 1c, 3-(4-methoxyphenyl)-1-[4-[4-[(3S)-3-methylmorpholin-4-yl]-6-(methylsulfonylmethyl)pyrimidin-2-yl]phenyl]thiourea]"
4,21.5,"C[C@H]1COCCN1c1cc(CS(C)(=O)=O)nc(-c2ccc(NC(=S)Nc3ccc(F)cc3)cc2)n1 [Example 1d, 3-(4-fluorophenyl)-1-[4-[4-[(3S)-3-methylmorpholin-4-yl]-6-(methylsulfonylmethyl)pyrimidin-2-yl]phenyl]thiourea]"
5,4.77,"C[C@H]1COCCN1c1cc(C(C)(C)S(C)(=O)=O)nc(-c2ccc(NC(=S)NC3CC3)cc2)n1 [Example 2, 3-Cyclopropyl-1-[4-[4-[(3S)-3-methylmorpholin-4-yl]-6-(2-methylsulfonylpropan-2-yl)pyrimidin-2-yl]phenyl]thiourea]"
6,5.1,"CNC(=S)Nc1ccc(-c2nc(N3CCOC[C@@H]3C)cc(C(C)(C)S(C)(=O)=O)n2)cc1 [Example 2a, 3-methyl-1-[4-[4-[(3S)-3-methylmorpholin-4-yl]-6-(2-methylsulfonylpropan-2-yl)pyrimidin-2-yl]phenyl]thiourea]"
7,6.8,"CCNC(=S)Nc1ccc(-c2nc(N3CCOC[C@@H]3C)cc(C(C)(C)S(C)(=O)=O)n2)cc1 [Example 2b, 3-ethyl-1-[4-[4-[(3S)-3-methylmorpholin-4-yl]-6-(2-methylsulfonylpropan-2-yl)pyrimidin-2-yl]phenyl]thiourea]"
8,305,"C[C@H]1COCCN1c1cc(C(C)(C)S(C)(=O)=O)nc(-c2ccc(NC(=S)NCCN(C)C)cc2)n1 [Example 2d, 3-(2-dimethylaminoethyl)-1-[4-[4-[(3S)-3-methylmorpholin-4-yl]-6-(2-methylsulfonylpropan-2-yl)pyrimidin-2-yl]phenyl]thiourea]"
9,11,"CNC(=S)Nc1ccc(-c2nc(N3CCOC[C@@H]3C)cc(C(C)(C)S(=O)(=O)c3ccccc3)n2)cc1 [Example 3, 1-[4-[4-[2-(Benzenesulfonyl)propan-2-yl]-6-[(3S)-3-methylmorpholin-4-yl]pyrimidin-2-yl]phenyl]-3-methylthiourea]"
10,7.17,"C[C@H]1COCCN1c1cc(C(C)(C)S(=O)(=O)c2ccccc2)nc(-c2ccc(NC(=S)NC3CC3)cc2)n1 [Example 3a, 1-[4-[4-[2-(benzenesulfonyl)propan-2-yl]-6-[(3S)-3-methylmorpholin-4-yl]pyrimidin-2-yl]phenyl]-3-cyclopropylthiourea]"
11,12.4,"CCNC(=S)Nc1ccc(-c2nc(N3CCOC[C@@H]3C)cc(C(C)(C)S(=O)(=O)c3ccccc3)n2)cc1 [Example 3b, 1-[4-[4-[2-(benzenesulfonyl)propan-2-yl]-6-[(3S)-3-methylmorpholin-4-yl]pyrimidin-2-yl]phenyl]-3-ethylthiourea]"
12,3.08,"C[C@H]1COCCN1c1cc(C(C)(C)S(=O)(=O)c2ccccc2)nc(-c2ccc(NC(=S)NCCO)cc2)n1 [Example 3c, 1-[4-[4-[2-(benzenesulfonyl)propan-2-yl]-6-[(3S)-3-methylmorpholin-4-yl]pyrimidin-2-yl]phenyl]-3-(2-hydroxyethyl)thiourea]"
13,161,"C[C@H]1COCCN1c1cc(C(C)(C)S(=O)(=O)CCCO)nc(-c2ccc(NC(=S)NC3CC3)cc2)n1 [Example 4, 3-Cyclopropyl-1-[4-[4-[2-(3-hydroxypropylsulfonyl)propan-2-yl]-6-[(3S)-3-methylmorpholin-4-yl]pyrimidin-2-yl]phenyl]thiourea]"
14,15.5,"C[C@H]1COCCN1c1cc(C(C)(C)S(=O)(=O)CCCO)nc(-c2ccc(NC(=S)NCCO)cc2)n1 [Example 4a, 3-(2-hydroxyethyl)-1-[4-[4-[2-(3-hydroxypropylsulfonyl)propan-2-yl]-6-[(3S)-3-methylmorpholin-4-yl]pyrimidin-2-yl]phenyl]thiourea]"
15,154,"CNC(=S)Nc1ccc(-c2nc(N3CCOC[C@@H]3C)cc(C(C)(C)S(=O)(=O)CCCO)n2)cc1 [Example 4b, 1-[4-[4-[2-(3-hydroxypropylsulfonyl)propan-2-yl]-6-[(3S)-3-methylmorpholin-4-yl]pyrimidin-2-yl]phenyl]-3-methylthiourea]"
16,58.5,"CCNC(=S)Nc1ccc(-c2nc(N3CCOC[C@@H]3C)cc(C(C)(C)S(=O)(=O)CCCO)n2)cc1 [Example 4c, 3-ethyl-1-[4-[4-[2-(3-hydroxypropylsulfonyl)propan-2-yl]-6-[(3S)-3-methylmorpholin-4-yl]pyrimidin-2-yl]phenyl]thiourea]"
17,7.9,"C[C@H]1COCCN1c1cc(C(C)(C)O)nc(-c2ccc(NC(=S)NCCO)cc2)n1 [Example 5, 3-(2-Hydroxyethyl)-1-[4-[4-(2-hydroxypropan-2-yl)-6-[(3S)-3-methylmorpholin-4-yl]pyrimidin-2-yl]phenyl]thiourea]"
18,36.7,"CNC(=S)Nc1ccc(-c2nc(N3CCOC[C@@H]3C)cc(C(C)(C)O)n2)cc1 [Example 5a, 1-[4-[4-(2-hydroxypropan-2-yl)-6-[(3S)-3-methylmorpholin-4-yl]pyrimidin-2-yl]phenyl]-3-methylthiourea]"
19,38.4,"C[C@H]1COCCN1c1cc(C(C)(C)O)nc(-c2ccc(NC(=S)NC3CC3)cc2)n1 [Example 5b, 3-cyclopropyl-1-[4-[4-(2-hydroxypropan-2-yl)-6-[(3S)-3-methylmorpholin-4-yl]pyrimidin-2-yl]phenyl]thiourea]"
20,37.4,"CCNC(=S)Nc1ccc(-c2nc(N3CCOC[C@@H]3C)cc(C(C)(C)O)n2)cc1 [Example 5c, 3-ethyl-1-[4-[4-(2-hydroxypropan-2-yl)-6-[(3S)-3-methylmorpholin-4-yl]pyrimidin-2-yl]phenyl]thiourea]"

# Reference: patent US8138183B2, “Morpholino pyrimidine derivatives used in diseases linked to mTOR kinase and/or PI3K” (AstraZeneca AB, priority 2007, dated 2012)
